From PMC9468151, “Identification of a binding site on soluble RANKL that can be targeted to inhibit soluble RANK-RANKL interactions and treat osteoporosis” (Nature Communications, 2022)
“And” between values parts separate entries of the source, which are not always exact repeats. Identical values can stand only once.

Tested on: T lymphocyte
Assay: T lymphocyte cell proliferation assay (CFSE, CD4+/CD8+ flow cytometry)
Assay type: cell-based, human
Protocol: T lymphocyte cell proliferation assay was performed according to a reported method[58] with some modification. Briefly, 5 × 10^6 cells /mL cells were stained 2.5 μM CFSE (Tonbo Biosciences) and incubated at 37 °C for 12 min. Then washed and discarded the supernatant and adjusted the CFSE stained cell to 1.75 × 10^6 cells /mL. Cells were diluted in 1640 completed medium containing 5 μg/mL anti-CD3 antibody (Tonbo Biosciences) to 3 × 10^5 cells/mL and seed in a 96-well plate or 24-well plate that pre-packaged 0.4 μg/well anti-CD28 antibody and 1.6 μg anti-CD28 antibody (24-well) (Tonbo Biosciences). Cells were then cultured for 3 days, 9 days or 12 days. Subsequently, the proportion of CD4^+ and CD8^+ cells was determined by flow cytometry (Beckman Coulter, FC500) according to manufacturer’s instruction of PE-Cyanine7 anti-Human CD8a and PE anti-Human CD4 antibodies (Tonbo Biosciences). Data analyzing was performed by using CXP software (Beckman Coulter, Supplementary Fig. 8).

[1] = Cancer donor 1, 3 day, Denosumab 2
[2] = Cancer donor 1, 3 day, Denosumab 10
[3] = Cancer donor 1, 3 day, Denosumab 50
[4] = Cancer donor 1, 3 day, Denosumab 100
[5] = Healthy donor 1, 3 day, Denosumab 2
[6] = Healthy donor 1, 3 day, Denosumab 10
[7] = Healthy donor 1, 3 day, Denosumab 50
[8] = Healthy donor 1, 3 day, Denosumab 100
[9] = Healthy donor 1, 12 day, Denosumab 2
[10] = Healthy donor 1, 12 day, Denosumab 10
[11] = Healthy donor 1, 12 day, Denosumab 50
[12] = Healthy donor 1, 12 day, Denosumab 100
[13] = Healthy donor 2, 9 day, Denosumab 2
[14] = Healthy donor 2, 9 day, Denosumab 10
[15] = Healthy donor 2, 9 day, Denosumab 50
[16] = Healthy donor 2, 9 day, Denosumab 100
[17] = cancer patient donors 1, 3 day, Denosumab conc. 2
[18] = cancer patient donors 1, 3 day, Denosumab conc. 10
[19] = cancer patient donors 1, 3 day, Denosumab conc. 50
[20] = cancer patient donors 1, 3 day, Denosumab conc. 100
[21] = healthy donors 2, 9 day, Denosumab conc. 2
[22] = healthy donors 2, 9 day, Denosumab conc. 10
[23] = healthy donors 2, 9 day, Denosumab conc. 50
[24] = healthy donors 2, 9 day, Denosumab conc. 100

Denosumab: human monoclonal antibody targeting RANKL [reference compound]
CD8+ cells in total cells (%) [1]: 12.95% and 18.88% and 19.88% | CD8+cells in CFSE-cells (%) [1]: 47.83% and 52.36% and 55.86% | CFSE- cells in total cells (%) [1]: 7.68% and 12.7% and 13.49% | CD8+ cells in total cells (%) [2]: 19.52% and 20.76% and 18.73% and 17.85% | CD8+cells in CFSE-cells (%) [2]: 58.3% and 60.56% and 50.89% and 60.05% | CFSE- cells in total cells (%) [2]: 14.67% and 15.58% and 13.42% and 13.19% | CD8+ cells in total cells (%) [3]: 26.97% and 21.55% and 18.02% and 16.53% | CD8+cells in CFSE-cells (%) [3]: 60.83% and 60.63% and 65.78% and 55.26% | CFSE- cells in total cells (%) [3]: 18.07% and 17.65% and 14.37% and 12.07% | CD8+ cells in total cells (%) [4]: 18.07% and 12.62% and 9.75% and 19.7% | CD8+cells in CFSE-cells (%) [4]: 58.14% and 64.44% and 57.46% and 66.87% | CFSE- cells in total cells (%) [4]: 13.67% and 8.82% and 5.94% and 14.04% | CD4+cells in total cells (%) [5]: 69.69% and 70.06% and 70.95% and 70.86% | CD8+ cells in total cells (%) [5]: 18.8% and 18.88% and 18.25% and 19.29% | CD8+cells in CFSE-cells (%) [5]: 26.34% and 25.38% and 32.57% and 36.89% | CFSE- cells in total cells (%) [5]: 26.84% and 28.54% and 29.29% and 24.77% | CD4+cells in total cells (%) [6]: 65.55% and 67.08% and 69.8% and 70.72% | CD8+ cells in total cells (%) [6]: 12.83% and 18.37% and 19.41% and 19.55% | CD8+cells in CFSE-cells (%) [6]: 30.74% and 26.84% and 36.74% and 30.32% | CFSE- cells in total cells (%) [6]: 20.59% and 18.28% and 26.59% and 31.48% | CD4+cells in total cells (%) [7]: 67.05% and 68.05% and 69.94% | CD8+ cells in total cells (%) [7]: 11.73% and 19.23% and 18.46% and 17.76% | CD8+cells in CFSE-cells (%) [7]: 24.41% and 28.83% and 32.28% and 24% | CFSE- cells in total cells (%) [7]: 15.36% and 19.21% and 18.01% and 22.17% | CD4+cells in total cells (%) [8]: 70.71% and 71.03% and 67.42% and 69.45% | CD8+ cells in total cells (%) [8]: 18.51% and 19.03% and 18% | CD8+cells in CFSE-cells (%) [8]: 34.99% and 31.86% and 30.15% and 27.25% | CFSE- cells in total cells (%) [8]: 23.52% and 25.01% and 20.72% and 24.32% | CD4+cells in total cells (%) [9]: 26.49% and 25.92% and 26.52% and 28.25% | CD8+ cells in total cells (%) [9]: 16.3% and 19.12% and 15.44% and 15.28% | CD8+cells in CFSE-cells (%) [9]: 73.19% and 72% and 71.55% and 68.56% | CFSE- cells in total cells (%) [9]: 14.97% and 17.18% and 14.07% and 13.53% | CD4+cells in total cells (%) [10]: 25.95% and 25.52% and 26.76% and 24.64% | CD8+ cells in total cells (%) [10]: 15.64% and 17.84% and 16.84% and 18.91% | CD8+cells in CFSE-cells (%) [10]: 74.4% and 67.54% and 67.82% and 72.96% | CFSE- cells in total cells (%) [10]: 15.13% and 15.31% and 14.05% and 17.18% | CD4+cells in total cells (%) [11]: 24.55% and 27.22% and 26.53% and 28.64% | CD8+ cells in total cells (%) [11]: 20.42% and 18.55% and 17.94% and 15.51% | CD8+cells in CFSE-cells (%) [11]: 76.93% and 74.3% and 73% and 74.26% | CFSE- cells in total cells (%) [11]: 19.56% and 16.94% and 16.16% and 14.84% | CD4+cells in total cells (%) [12]: 25.87% and 24.55% and 27.13% and 25.36% | CD8+ cells in total cells (%) [12]: 17.35% and 16.6% and 14.41% and 19% | CD8+cells in CFSE-cells (%) [12]: 75.89% and 76.07% and 78.18% and 58.5% | CFSE- cells in total cells (%) [12]: 16.6% and 18.55% and 14.85% and 14.03% | CD8+ cells in total cells (%) [13]: 62.1% and 50.03% and 44.09% | CD8+cells in CFSE-cells (%) [13]: 46.7% and 62.97% and 61.41% | CFSE- cells in total cells (%) [13]: 29.5% and 51.59% and 42.27% | CD8+cells in CFSE-cells (%) [14]: 52.77% and 43.74% and 55.57% | CFSE- cells in total cells (%) [14]: 41.17% and 28.01% and 37.92% | CD8+ cells in total cells (%) [15]: 20.69% and 38.29% and 38.09% | CD8+cells in CFSE-cells (%) [15]: 53.31% and 54.69% and 48.69% | CFSE- cells in total cells (%) [15]: 29.61% and 31.67% and 28.7% | CD8+ cells in total cells (%) [16]: 58.4% and 50.02% and 56.13% | CD8+cells in CFSE-cells (%) [16]: 75.13% and 70.69% and 68.35% | CFSE- cells in total cells (%) [16]: 59.44% and 46.67% and 44.15% | CD4+cells in total cells (%) [17]: 2.77% and 5.83% and 5.1% | CFSE-CD4+cells in CFSE-cells (%) [17]: 6.78% and 7.64% and 7.28% | CD4+cells in total cells (%) [18]: 4.94% and 4.86% and 1.84% and 3.11% | CFSE-CD4+cells in CFSE-cells (%) [18]: 6.34% and 3.24% and 8% and 8.92% | CD4+cells in total cells (%) [19]: 1.87% and 6.24% and 6.17% and 6.5% | CFSE-CD4+cells in CFSE-cells (%) [19]: 4% and 0.79% and 1.56% and 4.58% | CD4+cells in total cells (%) [20]: 9.55% and 7.15% and 9.97% and 6.77% | CFSE-CD4+cells in CFSE-cells (%) [20]: 4% and 0% and 0.9% | CD4+CFSE− cell after treatment (cancer patient, Fig. 7c, control 5.32 ± 0.76%): 1.33 ± 2.31% | total T cells isolated from cancer patient after treatment (cancer patient, Fig. 7c, control 14.51 ± 3.71%): 3.88 ± 1.77% | CD4+cells in total cells (%) (healthy donors 1, 3 day, Denosumab conc. 2): 72.37% and 73.3% and 66.26% and 61.44% | CD4+cells in total cells (%) (healthy donors 1, 3 day, Denosumab conc. 10): 65.16% and 71.53% and 62.16% and 68.6% | CD4+cells in total cells (%) (healthy donors 1, 3 day, Denosumab conc. 50): 73.23% and 69.38% and 66.17% and 74.19% | CD4+cells in total cells (%) (healthy donors 1, 3 day, Denosumab conc. 100): 64% and 66.67% and 68.46% and 71.67% | CFSE-CD4+cells in CFSE-cells (%) (healthy donors 1, 12 day, Denosumab conc. 2): 9.68% and 10.89% and 9.04% and 9.57% | CFSE-CD4+cells in CFSE-cells (%) (healthy donors 1, 12 day, Denosumab conc. 10): 10.52% and 10.85% and 8.44% and 10.78% | CFSE-CD4+cells in CFSE-cells (%) (healthy donors 1, 12 day, Denosumab conc. 50): 8.71% and 10.48% and 9.97% and 9.81% | CFSE-CD4+cells in CFSE-cells (%) (healthy donors 1, 12 day, Denosumab conc. 100): 9.75% and 11.53% and 10.58% | CD4+cells in total cells (%) [21]: 17% and 17.01% and 14.7% | CFSE-CD4+cells in CFSE-cells (%) [21]: 42.1% and 26.91% and 24.13% | CD4+cells in total cells (%) [22]: 13.52% and 17.3% and 15.5% | CFSE-CD4+cells in CFSE-cells (%) [22]: 24.29% and 47.85% and 28.82% | CD4+cells in total cells (%) [23]: 12.4% and 14.63% and 15.19% | CFSE-CD4+cells in CFSE-cells (%) [23]: 19.21% and 28.79% and 29.22% | CD4+cells in total cells (%) [24]: 14.9% and 10.87% and 12.57% | CFSE-CD4+cells in CFSE-cells (%) [24]: 20.36% and 16.35% and 22.15% | total CD4+ and CD4+CFSE− T cell (human 2, 9 days, 100 μg/mL): dropped by nearly half | lymphocyte proliferation (human lymphocytes, in words): notably inhibits lymphocyte proliferation at high concentration
